# Laboratory results taken from patent US20220364989A1, “METHOD FOR MEASURING PHOTOTOXICITY OR PHOTOALLERGY AND REAGENT FOR USE THEREIN” (FUJIFILM Corporation, priority 2018, published 2022).
# Where two headings read alike, the source gives them in different places.
# Columns and labels:
# [1] = 24 h, 0.25 mmol/L, pH 10.2
# [2] = reported in References 1 and 2; cited from earlier work
# [3] = 24 h, 0.25 mmol/L, pH 8
# [4] = reported in References 1 to 3; cited from earlier work
# [5] = Average score of NAC and NAL depletion and phototoxicity or photoallergy determination, fluorescence detection; settings: for Average score (%): without light irradiation
# [6] = NAL depletion under and without ultraviolet irradiation, HPLC with fluorescence detection (284 nm excitation, 333 nm fluorescence); settings: for NAL Depletion (%): without light irradiation
# [7] = NAL depletion under and without ultraviolet irradiation, HPLC with UV detection (281 nm); settings: for NAL Depletion (%) without light irradiation: 25° C. 24 hours light-shielded; for NAL Depletion (%) without light irradiation / NAL Depletion (%) under light irradiation: test substance solution 1 mmol/L; for NAL Depletion (%) under light irradiation: 2,000 μW/cm^2 for 1 hour then 25° C. 23 hours
# [8] = NAC depletion under and without ultraviolet irradiation, HPLC with UV detection (281 nm); settings: for NAC Depletion (%) without light irradiation: 25° C. 24 hours light-shielded; for NAC Depletion (%) without light irradiation / NAC Depletion (%) under light irradiation: test substance solution 1 mmol/L; for NAC Depletion (%) under light irradiation: 2,000 μW/cm^2 for 1 hour then 25° C. 23 hours
# [9] = Average score of NAC and NAL depletion and phototoxicity or photoallergy determination, UV detection; settings: for Average score (%) under light irradiation / Average score (%) without light irradiation: average of NAC and NAL depletion
# [10] = NAC depletion under and without ultraviolet irradiation, HPLC with fluorescence detection (284 nm excitation, 333 nm fluorescence); settings: for NAC Depletion (%): without light irradiation
# [11] = average of NAC and NAL depletion
# [12] = 25° C. 24 hours light-shielded, test substance solution 1 mmol/L
# [13] = 2,000 μW/cm^2 for 1 hour then 25° C. 23 hours, test substance solution 1 mmol/L
# [14] = without light irradiation, single compound
Difference in depletion (under light irradiation - without light irradiation) NAL (%) [1],NAL Depletion (%) under light irradiation [1],NAL Depletion (%) without light irradiation [1],Compound,In vivo photoallergy [2],In vivo phototoxicity [4],Difference in depletion (under light irradiation - without light irradiation) Average score (%) ([5]; single compound),Average score (%) ([5]; single compound),Difference in depletion (under light irradiation - without light irradiation) NAL (%) ([6]; single compound),NAL Depletion (%) ([6]; single compound),Difference in depletion (under light irradiation - without light irradiation) NAL (%) [7],NAL Depletion (%) without light irradiation [7],NAL Depletion (%) under light irradiation [7],Difference in depletion (under light irradiation - without light irradiation) NAC (%) [8],NAC Depletion (%) without light irradiation [8],NAC Depletion (%) under light irradiation [8],Difference in depletion (under light irradiation - without light irradiation) Average score (%) [9],Average score (%) under light irradiation [9],Average score (%) without light irradiation [9],Difference in depletion (under light irradiation - without light irradiation) NAC (%) ([10]; single compound),NAC Depletion (%) ([10]; single compound),also measured
−0.2%,0.0%,0.2%,"Nc1ccc(S(N)(=O)=O)cc1 [compound 27, Sulfanilamide]",Positive,,,,,,,,,,,,,,,,,Difference in depletion (under light irradiation - without light irradiation) NAC (%) [3]: 25.5%; NAC Depletion (%) under light irradiation [3]: 26.1%; NAC Depletion (%) without light irradiation [3]: 0.6%
3.3%,6.1%,2.8%,"CCCCCCCCCCCCCCCCO [compound 49, Cetyl alcohol]",Negative,Negative,,,,,,,,,,,,,,,,Difference in depletion (under light irradiation - without light irradiation) NAC (%) [3]: 3.7%; NAC Depletion (%) under light irradiation [3]: 5.5%; NAC Depletion (%) without light irradiation [3]: 1.8%
,,,COc1c2ccoc2cc2oc(=O)ccc12 [compound 31],Negative,Positive,48.9%,0.1%,6.0%,0.2%,8.2%,0.2%,8.4%,89.6%,1.1%,90.6%,48.9%,49.5%,0.6%,91.9%,0.0%,
,,,CC1(C)SC2C(NC(=O)Cc3ccccc3)C(=O)N2C1C(=O)O (stereo not drawn) [compound 44],Negative,Negative,0.9%,1.0%,0.4%,0.8%,−0.2%,1.9%,1.6%,1.5%,1.4%,2.8%,0.6%,2.2%,1.6%,1.3%,1.1%,
,,,Tetrachlorosalicylanilide [compound 12],Positive,Positive,60.4%,31.5%,81.5%,5.0%,77.9%,4.2%,82.1%,,66.8%,−200.9%,,,35.5%,39.4%,58.0%,
6.9%,8.4%,1.5%,"CC(=O)c1ccc2ccccc2c1 [compound 37, Methyl β-naphthyl ketone]",,,,,,,,,,,,,,,,,,Difference in depletion (under light irradiation - without light irradiation) NAC (%) [3]: 99.4%; NAC Depletion (%) under light irradiation [3]: 100.0%; NAC Depletion (%) without light irradiation [3]: 0.6%
19.3%,20.3%,1.0%,"CCOc1ccc2c(C)cc(=O)oc2c1 [compound 29, 4-Methyl-7-ethoxycoumarin]",Positive,,,,,,,,,,,,,,,,,Difference in depletion (under light irradiation - without light irradiation) NAC (%) [3]: 93.6%; NAC Depletion (%) under light irradiation [3]: 93.6%; NAC Depletion (%) without light irradiation [3]: 0.0%
,,,CC(C)O [compound 47],Negative,Negative,−0.1%,0.3%,0.3%,0.0%,−1.2%,1.5%,0.3%,1.7%,0.0%,1.7%,0.2%,1.0%,0.8%,−0.5%,0.5%,
,,,C[S+](C)[O-] [compound 58],Negative,Negative,,,,,,,,,,,,,,,,"Difference in depletion (under light irradiation - without light irradiation) Average score (%) [5]: 0.1%; Average score (%) under light irradiation [5, 11]: 0.1%; Average score (%) without light irradiation [5, 11]: 0.0%; Difference in depletion (under light irradiation - without light irradiation) NAL (%) [6]: 0.0%; NAL Depletion (%) without light irradiation [6, 12]: 0.0%; NAL Depletion (%) under light irradiation [6, 13]: 0.0%; Difference in depletion (under light irradiation - without light irradiation) NAL (%) ([7]; single compound): −0.2%; NAL Depletion (%) [7, 14]: 0.2%; Difference in depletion (under light irradiation - without light irradiation) NAC (%) ([8]; single compound): 0.7%; NAC Depletion (%) [8, 14]: 0.0%; Difference in depletion (under light irradiation - without light irradiation) Average score (%) ([9]; single compound): 0.3%; Average score (%) [9, 14]: 0.1%; Difference in depletion (under light irradiation - without light irradiation) NAC (%) [10]: 0.1%; NAC Depletion (%) without light irradiation [10, 12]: 0.0%; NAC Depletion (%) under light irradiation [10, 13]: 0.2%"
,,,CCO [compound 50],Negative,Negative,−0.1%,0.1%,0.0%,0.0%,−1.3%,1.3%,0.0%,0.4%,0.0%,0.4%,−0.5%,0.2%,0.6%,−0.3%,0.3%,
,,,CC(CN1c2ccccc2Sc2ccccc21)N(C)C.Cl (racemic) [compound 14],Positive,Positive,41.5%,12.2%,6.6%,0.8%,,3.5%,−438.6%,61.9%,27.6%,89.5%,,,15.6%,76.4%,23.6%,
,,,Cc1ccc(C=C2C(=O)C3(C)CCC2C3(C)C)cc1 (racemic) [compound 39],Negative,Negative,2.0%,0.1%,0.0%,0.0%,0.0%,0.0%,0.0%,3.6%,0.7%,4.3%,1.8%,2.1%,0.3%,3.9%,0.2%,
,,,CC(C)OC(=O)C(C)(C)Oc1ccc(C(=O)c2ccc(Cl)cc2)cc1 [compound 38],,Positive,67.8%,0.0%,37.0%,0.0%,40.7%,0.0%,40.7%,,0.0%,−1178.7%,,,0.0%,98.7%,0.0%,
